This note sets out measurements from US8404670B2 (Sunovion Pharmaceuticals Inc., priority 2009, dated 2013).

One may read the IC50 as the concentration that inhibits the measured activity by half.

Each structure is given as a SMILES string. A value given as a limit tells only on which side of the number the result lay.

The target of the assay is T1, human histamine H3 receptor (Homo sapiens, UniProt Q9Y5N1).
T1 construct: host or cells: cells expressing the human H3 receptor
T1 sequence (Q9Y5N1 whole entry): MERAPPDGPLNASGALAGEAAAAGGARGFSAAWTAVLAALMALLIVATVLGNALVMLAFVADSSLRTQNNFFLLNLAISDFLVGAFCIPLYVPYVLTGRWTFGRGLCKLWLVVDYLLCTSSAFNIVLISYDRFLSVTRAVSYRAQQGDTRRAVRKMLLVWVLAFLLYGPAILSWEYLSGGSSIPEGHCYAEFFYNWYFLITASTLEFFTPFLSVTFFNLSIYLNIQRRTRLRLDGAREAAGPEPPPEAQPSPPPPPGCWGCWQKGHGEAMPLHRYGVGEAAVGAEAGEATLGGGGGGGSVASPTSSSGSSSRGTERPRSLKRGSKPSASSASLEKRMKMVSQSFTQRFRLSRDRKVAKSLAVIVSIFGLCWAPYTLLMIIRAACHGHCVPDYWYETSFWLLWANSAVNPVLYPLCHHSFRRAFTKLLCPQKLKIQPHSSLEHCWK
Kind of assay: H3 GTPγS assay (SPA method), histamine H3 in vitro assay. Type of assay: biochemical. The following applies: GTPγ[35S] binding to membranes of cells expressing human H3; antagonist mode with R-γ-Me-Histamine at EC80 (30 nM); in one embodiment HCl salts tested; read-out: Potency (functional potency as indicated by IC50). On the technique in general: GTPγS resists hydrolysis and so accumulates on activated G proteins.
For `c1cnc(N2Cc3cc4nc5n(c4cc3C2)CCN(C2CCC2)CC5)cn1` [Compound 149, 8-cyclobutyl-2-(pyrazin-2-yl)-1,2,3,6,7,8,9,10-octahydro-[1,4]diazepino[1′,7′:1,2]imidazo[4,5-f]isoindole], the IC50 was at least 1000 nM.

With `c1cn(-c2ccc3c(c2)nc2n3CCN(C3CCC3)CC2)nn1` [Compound 150, 3-cyclobutyl-8-(1H-1,2,3-triazol-1-yl)-2,3,4,5-tetrahydro-1H-benzo[4,5]imidazo[1,2-d][1,4]diazepine], the IC50 is at most 100 nM.

For `c1cnn(-c2ccc3c(c2)nc2n3CCN(C3CCC3)CC2)n1` [Compound 151, 3-cyclobutyl-8-(2H-1,2,3-triazol-2-yl)-2,3,4,5-tetrahydro-1H-benzo[4,5]imidazo[1,2-d][1,4]diazepine], the IC50 was at most 100 nM.

Take `c1ncn(-c2ccc3c(c2)nc2n3CCN(C3CCC3)CC2)n1` [Compound 152, 3-cyclobutyl-8-(1H-1,2,4-triazol-1-yl)-2,3,4,5-tetrahydro-1H-benzo[4,5]imidazo[1,2-d][1,4]diazepine]: the IC50 was at most 100 nM. Regarding `c1cc2c(cc1-n1cnnn1)nc1n2CCN(C2CCC2)CC1` [Compound 154, 3-cyclobutyl-8-(1H-tetrazol-1-yl)-2,3,4,5-tetrahydro-1H-benzo[4,5]imidazo[1,2-d][1,4]diazepine], the IC50 was at most 100 nM. As for `Cc1nnnn1-c1ccc2c(c1)nc1n2CCN(C2CCC2)CC1` [Compound 156, 3-cyclobutyl-8-(5-methyl-1H-tetrazol-1-yl)-2,3,4,5-tetrahydro-1H-benzo[4,5]imidazo[1,2-d][1,4]diazepine], the IC50 is at most 100 nM. The figure for `Cc1nncn1-c1ccc2c(c1)nc1n2CCN(C2CCC2)CC1` [Compound 157, 3-cyclobutyl-8-(3-methyl-4H-1,2,4-triazol-4-yl)-2,3,4,5-tetrahydro-1H-benzo[4,5]imidazo[1,2-d][1,4]diazepine] is at most 100 nM. The figure for `FC1CCN(Cc2ccc3c(c2)nc2n3CCN(C3CCC3)CC2)CC1` [Compound 159, 3-cyclobutyl-8-((4-fluoropiperidin-1-yl)methyl)-2,3,4,5-tetrahydro-1H-benzo[4,5]imidazo[1,2-d][1,4]diazepine] is at most 10 nM.

For `FC1(F)CCN(Cc2ccc3c(c2)nc2n3CCN(C3CCC3)CC2)CC1` [Compound 160, 3-cyclobutyl-8-((4,4-difluoropiperidin-1-yl)methyl)-2,3,4,5-tetrahydro-1H-benzo[4,5]imidazo[1,2-d][1,4]diazepine], the IC50 was at most 10 nM. As for `FC1CCCN(Cc2ccc3c(c2)nc2n3CCN(C3CCC3)CC2)C1` (stereo not shown) [Compound 161, 3-cyclobutyl-8-((3-fluoropiperidin-1-yl)methyl)-2,3,4,5-tetrahydro-1H-benzo[4,5]imidazo[1,2-d][1,4]diazepine], the IC50 was at most 10 nM. The figure for `FC1(F)CCCN(Cc2ccc3c(c2)nc2n3CCN(C3CCC3)CC2)C1` [Compound 162, 3-cyclobutyl-8-((3,3-difluoropiperidin-1-yl)methyl)-2,3,4,5-tetrahydro-1H-benzo[4,5]imidazo[1,2-d][1,4]diazepine] is at most 10 nM. As to `c1ccc2c(c1)CCN(Cc1ccc3c(c1)nc1n3CCN(C3CCC3)CC1)C2` [Compound 163, 3-cyclobutyl-8-((3,4-dihydroisoquinolin-2(1H)-yl)methyl)-2,3,4,5-tetrahydro-1H-benzo[4,5]imidazo[1,2-d][1,4]diazepine], the IC50 was at most 10 nM.

For `Fc1ccc2c(c1)CCN(Cc1ccc3c(c1)nc1n3CCN(C3CCC3)CC1)C2` [Compound 164, 3-cyclobutyl-8-((6-fluoro-3,4-dihydroisoquinolin-2(1H)-yl)methyl)-2,3,4,5-tetrahydro-1H-benzo[4,5]imidazo[1,2-d][1,4]diazepine], the half-inhibitory concentration (IC50) was at most 10 nM.

Regarding `FC1CCN(Cc2ccc3c(c2)nc2n3CCN(C3CCC3)CC2)C1` (stereo not shown) [Compound 165, 3-cyclobutyl-8-((3-fluoropyrrolidin-1-yl)methyl)-2,3,4,5-tetrahydro-1H-benzo[4,5]imidazo[1,2-d][1,4]diazepine], the IC50 was at most 100 nM. As to `FC1(F)CCN(Cc2ccc3c(c2)nc2n3CCN(C3CCC3)CC2)C1` [Compound 166, 3-cyclobutyl-8-((3,3-difluoropyrrolidin-1-yl)methyl)-2,3,4,5-tetrahydro-1H-benzo[4,5]imidazo[1,2-d][1,4]diazepine], the IC50 is at most 10 nM. In the case of `CC(=O)N1CCN(c2ccc3c(c2)nc2n3CCN(C3CCC3)CC2)CC1` [Compound 167, 1-(4-(3-cyclobutyl-2,3,4,5-tetrahydro-1H-benzo[4,5]imidazo[1,2-d][1,4]diazepin-8-yl)piperazin-1-yl)ethanone], the IC50 is at most 10 nM. The figure for `N#Cc1ccc(C(=O)N2CCN(c3ccc4c(c3)nc3n4CCN(C4CCC4)CC3)CC2)cc1` [Compound 168, 4-(4-(3-cyclobutyl-2,3,4,5-tetrahydro-1H-benzo[4,5]imidazo[1,2-d][1,4]diazepin-8-yl)piperazine-1-carbonyl)benzonitrile] is at most 10 nM; for `O=C(c1cnccn1)N1CCN(c2ccc3c(c2)nc2n3CCN(C3CCC3)CC2)CC1` [Compound 169, (4-(3-cyclobutyl-2,3,4,5-tetrahydro-1H-benzo[4,5]imidazo[1,2-d][1,4]diazepin-8-yl)piperazin-1-yl)(pyrazin-2-yl)methanone] it is at most 100 nM; for `O=C(C1CC1)N1CCN(c2ccc3c(c2)nc2n3CCN(C3CCC3)CC2)CC1` [Compound 170, (4-(3-cyclobutyl-2,3,4,5-tetrahydro-1H-benzo[4,5]imidazo[1,2-d][1,4]diazepin-8-yl)piperazin-1-yl)(cyclopropyl)methanone] it is at most 10 nM. Regarding `CC(=O)N1CCCC(c2ccc3c(c2)nc2n3CCN(C3CCC3)CC2)C1` (stereo not shown) [Compound 171, 1-(3-(3-cyclobutyl-2,3,4,5-tetrahydro-1H-benzo[4,5]imidazo[1,2-d][1,4]diazepin-8-yl)piperidin-1-yl)ethanone], the IC50 was at most 10 nM. Turning to `N#Cc1ccc(C(=O)N2CCCC(c3ccc4c(c3)nc3n4CCN(C4CCC4)CC3)C2)cc1` (stereo not shown) [Compound 172, 4-(3-(3-cyclobutyl-2,3,4,5-tetrahydro-1H-benzo[4,5]imidazo[1,2-d][1,4]diazepin-8-yl)piperidine-1-carbonyl)benzonitrile], the IC50 was at most 100 nM. With `O=C(c1cnccn1)N1CCCC(c2ccc3c(c2)nc2n3CCN(C3CCC3)CC2)C1` (stereo not shown) [Compound 173, (3-(3-cyclobutyl-2,3,4,5-tetrahydro-1H-benzo[4,5]imidazo[1,2-d][1,4]diazepin-8-yl)piperidin-1-yl)(pyrazin-2-yl)methanone] the figure was at most 100 nM. As to `O=C(C1CCC1)N1CCCC(c2ccc3c(c2)nc2n3CCN(C3CCC3)CC2)C1` (stereo not shown) [Compound 174], the IC50 is at most 10 nM. As to `c1cc2c(cc1N1CCCCC1)nc1n2CCN(C2CCC2)CC1` [Compound 175, 3-cyclobutyl-8-(piperidin-1-yl)-2,3,4,5-tetrahydro-1H-benzo[4,5]imidazo[1,2-d][1,4]diazepine], the IC50 is at most 10 nM.

Take `c1ccc2c(c1)CCN(c1ccc3c(c1)nc1n3CCN(C3CCC3)CC1)C2` [Compound 176, 3-cyclobutyl-8-(3,4-dihydroisoquinolin-2(1H)-yl)-2,3,4,5-tetrahydro-1H-benzo[4,5]imidazo[1,2-d][1,4]diazepine]: the IC50 was at most 10 nM.
